Where two headings read alike, the source gives them in different places.
Experiments:
[1] = test system: Hela cell; settings: Hela cells, footnote b: reported in Li, et al. J Hematol Oncol, 2022, read-out: Anti-proliferative activity EC50, Hela, cited from earlier work
[2] = test system: Molm-13 cells; settings: Molm13 cells, footnote b: reported in Li, et al. J Hematol Oncol, 2022; read-out: Anti-proliferative activity EC50, Molm13; cited from earlier work
[3] = test system: MV4;11 cells; settings: footnote b: reported in Li, et al. J Hematol Oncol, 2022, read-out: Anti-proliferative activity EC50, MV4; cited from earlier work
[4] = target: T1, ENL YEATS-H3K27ac interaction (Homo sapiens, UniProt Q03111); assay: ALPHA assay, inhibition of ENL YEATS-H3K27ac interaction; settings: read-out: IC50, inhibition of ENL YEATS-H3K27ac interaction
T1 sequence (Q03111 1-138 limits assumed): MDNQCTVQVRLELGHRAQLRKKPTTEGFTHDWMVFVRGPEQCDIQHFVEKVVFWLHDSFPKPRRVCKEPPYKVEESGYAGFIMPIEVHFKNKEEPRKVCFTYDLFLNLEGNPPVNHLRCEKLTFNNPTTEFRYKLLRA

[5] = target: T2, ENL (Homo sapiens, UniProt Q03111); assay: ENL degradation in MV4;11 cells (Western blot); type: cell-based; settings: for DC50: read-out: DC50 (concentration at which a protein is reduced by 50%), ENL
T2 construct: tested whether the compounds degrade ENL and AF9 in MV4;11 leukemia cells; endogenous in cells; host or cells: MV4;11; Molm-13
T2 sequence (Q03111 1-559): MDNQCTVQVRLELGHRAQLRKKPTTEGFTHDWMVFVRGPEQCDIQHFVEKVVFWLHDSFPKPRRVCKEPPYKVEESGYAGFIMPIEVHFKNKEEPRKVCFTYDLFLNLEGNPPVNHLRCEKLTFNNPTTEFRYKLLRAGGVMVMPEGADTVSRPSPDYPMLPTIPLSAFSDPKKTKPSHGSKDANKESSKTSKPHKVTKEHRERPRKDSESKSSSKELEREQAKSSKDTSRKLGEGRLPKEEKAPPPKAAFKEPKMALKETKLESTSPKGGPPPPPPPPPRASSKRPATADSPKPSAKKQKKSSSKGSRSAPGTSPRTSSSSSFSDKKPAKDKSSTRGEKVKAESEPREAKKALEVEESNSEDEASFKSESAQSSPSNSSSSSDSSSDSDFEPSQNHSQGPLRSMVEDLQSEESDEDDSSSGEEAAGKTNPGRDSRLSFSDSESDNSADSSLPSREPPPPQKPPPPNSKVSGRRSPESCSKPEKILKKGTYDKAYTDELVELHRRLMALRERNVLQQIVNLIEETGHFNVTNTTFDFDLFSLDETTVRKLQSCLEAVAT
Experimental: Next, Applicant tested whether the compounds degrade ENL and AF9 in MV4;11 leukemia cells with the .MLL1-AF4 oncogene. Upon compound treatment for 24 h, the cells were washed, lysed, and the lysates subjected to SDS-PAGE (sodium dodecyl sulphate-polyacrylamide gel electrophoresis) followed by detection with Western blot.

[6] = test system: RPMI-8226 cells; assay: Anti-proliferative activity, RPMI-8226 cells; type: cell-based
[7] = test system: Hela cell; assay: Anti-proliferative activity, Hela cells; type: cell-based; settings: Hela cells, read-out: Anti-proliferative activity EC50, Hela
[8] = test system: blood and solid tumor cells; assay: Anti-proliferative activity, panel of blood and solid tumor cells; type: cell-based
[9] = test system: RPMI-8226 cells; settings: footnote b: reported in Li, et al. J Hematol Oncol, 2022, read-out: Anti-proliferative activity EC50, RPMI-8226; cited from earlier work
[10] = test system: Molm-13 cells; assay: Anti-proliferative activity, Molm-13 cells; type: cell-based
[11] = test system: MV4;11 cells; assay: Anti-proliferative activity, MV4;11 cells; type: cell-based
[12] = target: T2, ENL; assay: Rescue of compound 1-mediated ENL degradation in MV4;11 cells; type: cell-based; settings: 2 h pre-treatment then co-treatment with compound 1 (500 nM) for 24 h
[13] = target: T2, ENL; assay: Nuclear and cytoplasmic ENL levels in MV4;11 cells, 4 days (Western blot); type: cell-based
Source text: Upon treatment of MV4;11 cells with these compounds for 4 days, cytoplasmic and nuclear proteins were separated and subjected to SDS-PAGE/Western blot.

[14] = Molm13 cells, read-out: Anti-proliferative activity EC50, Molm13
[15] = MV4, 11 cells, read-out: Anti-proliferative activity EC50, MV4, 11

## C[C@H]1CCCN1Cc1nc2cc(NC(=O)c3ccc4c(cnn4CCCCCCNc4cccc5c4C(=O)N(C4CCC(=O)NC4=O)C5=O)c3)ccc2[nH]1 (stereo partly drawn) [Compound 2]
[1]
  EC50: > 50 µM
[2]
  EC50: 0.49 µM
[3]
  EC50: 1.6 µM
[4]
  IC50: 0.1 µM
[5]; 24 h treatment
  Dmax (maximal degradation), ENL: ~68%
  DC50: ~0.05 µM
[6]
  EC50: 6 ± 0.91 µM

## C[C@H]1CCCN1Cc1nc2cc(NC(=O)c3ccc4c(cnn4CCCCNc4cccc5c4C(=O)N(C4CCC(=O)NC4=O)C5=O)c3)ccc2[nH]1 (stereo partly drawn) [Compound 3]
[2]
  EC50: 2.1 µM
[3]
  EC50: 1.2 µM
[7]; footnote letter missing
  EC50: > 50 µM
[4]
  IC50: 0.61 µM
[5]; 24 h treatment
  Dmax (maximal degradation), ENL: 89%
  concentration at which ENL is almost depleted: ~500 nM
  DC50: 0.072 µM
[6]
  EC50: 19 ± 3.8 µM

## C[C@H]1CCCN1Cc1nc2cc(NC(=O)c3ccc4c(cnn4CCCCNC(=O)CC45CC6CC(CC(C6)C4)C5)c3)ccc2[nH]1 [Compound 4]
[8]
  time to non-selective killing of cancerous cells: ≤ 3 days
[8]; blood and solid tumor cells, range over cell lines, read-out: EC50, proliferation
  EC50: 1 to 3.8 µM
[5]; 24 h, even at 5 μM
  ENL reduction: did not reduce ENL

## C[C@H]1CCCN1Cc1nc2cc(NC(=O)c3ccc4c(cnn4C)c3)ccc2[nH]1 [SGC-iMLLT, reference compound]
[1]
  EC50: > 50 µM
[9]
  EC50: > 50 µM
[2]
  EC50: 17 µM
[3]
  EC50: > 50 µM
[10]; Molm-13 cells
  activity against proliferation: weak activity

## C[C@H]1CCCN1Cc1nc2cc(NC(=O)c3ccc4c(cnn4CCCCCCCCNC(=O)CC45CC6CC(CC(C6)C4)C5)c3)ccc2[nH]1 [SYC-2521]
[7]; 3 days incubation
  EC50: 2.5 ± 1.4 µM
[6]
  EC50: 2 ± 0.3 µM
[10]; [14]
  EC50: 1 ± 0.2 µM

## C[C@H]1CCCN1Cc1nc2cc(NC(=O)c3ccc4c(cnn4CCCCCCNC(=O)CC45CC6CC(CC(C6)C4)C5)c3)ccc2[nH]1 [SYC-2522]
[7]; 3 days incubation
  EC50: 3.2 ± 0.7 µM
[6]
  EC50: 0.68 ± 0.2 µM
[10]; [14]
  EC50: 1 ± 0.05 µM

## C[C@H]1CCCN1Cc1nc2cc(NC(=O)c3ccc4c(cnn4CCCCNC(=O)CC45CC6CC(CC(C6)C4)C5)c3)ccc2[nH]1 [SYC-2523]
[1]; 3 days incubation
  EC50: 3.8 ± 1.2 µM
[6]; 3 days incubation
  EC50: 1.4 ± 0.5 µM
[10]; [14]
  EC50: 0.98 ± 0.04 µM

## C[C@H]1CCCN1Cc1nc2cc(NC(=O)c3ccc4c(cnn4CCCNc4cccc5c4C(=O)N(C4CCC(=O)NC4=O)C5=O)c3)ccc2[nH]1 (stereo partly drawn) [SYC-2552]
[5]; 24 h treatment
  DC50: 0.021 µM
[10]; [14]
  EC50: 2.5 ± 1.1 µM

## C[C@H]1CCCN1Cc1nc2cc(NC(=O)c3ccc4c(cnn4CCCCCNc4cccc5c4C(=O)N(C4CCC(=O)NC4=O)C5=O)c3)ccc2[nH]1 (stereo partly drawn) [SYC-2553]
[5]; 24 h treatment
  DC50: 0.0042 µM
[11]; [15]
  EC50: 8.3 ± 1.6 µM
[6]
  EC50: 7.2 ± 0.35 µM
[10]; [14]
  EC50: 3.4 ± 0.4 µM

## C[C@H]1CCCN1Cc1nc2cc(NC(=O)c3ccc4c(cnn4CCCCCCCNc4cccc5c4C(=O)N(C4CCC(=O)NC4=O)C5=O)c3)ccc2[nH]1 (stereo partly drawn) [SYC-2554]
[11]; [15]
  EC50: 3.7 ± 1.6 µM
[6]
  EC50: 6.4 ± 0.65 µM
[10]; [14]
  EC50: 4.4 ± 0.5 µM

## C[C@H]1CCCN1Cc1nc2cc(NC(=O)c3ccc4c(cnn4CCCCCCCCCNc4cccc5c4C(=O)N(C4CCC(=O)NC4=O)C5=O)c3)ccc2[nH]1 (stereo partly drawn) [SYC-2555]
[5]; FIGS. 9A-9E
  ENL reduction: did not reduce ENL
[11]; [15]
  EC50: 8.3 ± 0.8 µM
[6]
  EC50: 7.9 ± 0.07 µM
[10]; [14]
  EC50: 4.5 ± 0.6 µM

## C[C@H]1CCCN1Cc1nc2cc(NC(=O)c3ccc4c(cnn4CCCCCCCCCCNc4cccc5c4C(=O)N(C4CCC(=O)NC4=O)C5=O)c3)ccc2[nH]1 (stereo partly drawn) [SYC-2556]
[5]; FIGS. 9A-9E
  ENL reduction: did not reduce ENL
[11]; [15]
  EC50: 8.4 ± 1.2 µM
[6]
  EC50: 7.5 ± 0.19 µM
[10]; [14]
  EC50: 1.1 ± 0.3 µM

## C[C@H]1CCCN1Cc1nc2cc(NC(=O)c3ccc4c(cnn4CCCCCCCCCCCNc4cccc5c4C(=O)N(C4CCC(=O)NC4=O)C5=O)c3)ccc2[nH]1 (stereo partly drawn) [SYC-2557]
[5]; FIGS. 9A-9E
  ENL reduction: did not reduce ENL
[11]; [15]
  EC50: 0.94 ± 0.06 µM
[6]; 6 days incubation
  EC50: 5.5 µM
[10]; [14]
  EC50: 0.82 ± 0.2 µM

## C[C@H]1CCCN1Cc1nc2cc(NC(=O)c3ccc4c(cnn4CCCNC(=O)CC45CC6CC(CC(C6)C4)C5)c3)ccc2[nH]1 [SYC-2558]
[7]; 3 days incubation
  EC50: 2.5 ± 1 µM

## O=C1CCC(N2C(=O)c3ccccc3C2=O)C(=O)N1 (stereo not drawn) [Thalidomide, thalidomide, reference compound]
[12]
  effect on compound 1-mediated ENL degradation: dose-dependently inhibit compound 1-mediated ENL degradation
[1]
  EC50: > 50 µM
[13]
  ENL level in the nucleus: did not reduce
[9]
  EC50: > 50 µM
[2]
  EC50: > 50 µM
[3]
  EC50: > 50 µM
[11]; Homo sapiens, 168 h, MV4;11 cells, 7-day incubation, read-out: EC50, proliferation
  EC50: > 50 µM
[10]; Homo sapiens, 168 h, Molm-13 cells, 7-day incubation, read-out: EC50, proliferation
  EC50: > 50 µM

## CC(C)C[C@H](NC(=O)[C@H](Cc1ccccc1)NC(=O)c1cnccn1)B(O)O [bortezomib]
[12]
  effect on compound 1-mediated ENL degradation: dose-dependently inhibit compound 1-mediated ENL degradation

Source: patent US20250235437A1, “PROTEOLYSIS TARGETING CHIMERA (PROTAC) MOLECULE FOR DEGRADATION OF ENL AND CANCER THERAPY” (Baylor College of Medicine, priority 2022, published 2025)
